Data as given in PubChem BioAssay (NCI).
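GI50 is the concentration that inhibits growth by half. TGI denotes the concentration required for complete inhibition of growth.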

How the values were obtained:
Assay in all cases: inhibition of tumour cell growth, NCI panel, 384-well format
[1] = system: A498 renal
[2] = system: A549 NSCLC
[3] = system: HCT-116 colon
[4] = system: K-562 leukemia
[5] = system: T-47D breast
[6] = system: SK-MEL-5 melanoma
[7] = system: HOP-62 NSCLC
[8] = system: SN12C renal
[9] = system: UACC-257 melanoma
[10] = system: RXF 393 renal
[11] = system: SK-MEL-28 melanoma
[12] = system: MALME-3M melanoma
[13] = system: 786-0 renal
[14] = system: U251 glioblastoma
[15] = system: SF-295 CNS
[16] = system: MCF7 breast
[17] = system: CCRF-CEM leukemia
[18] = system: EKVX NSCLC
[19] = system: COLO 205 colon
[20] = system: CAKI-1 renal
[21] = system: HT29 colon
[22] = system: HOP-92 NSCLC
[23] = system: TK-10 renal
[24] = system: OVCAR-3 ovarian
[25] = system: UACC-62 melanoma
[26] = system: PC-3 prostate
[27] = system: SNB-19 CNS
[28] = system: OVCAR-5 ovarian
[29] = system: NCI-H460 NSCLC
[30] = system: BT-549 breast
[31] = system: SNB-75 CNS
[32] = system: OVCAR-4 ovarian
[33] = system: MOLT-4 leukemia
[34] = system: OVCAR-8 ovarian
[35] = system: IGROV1 ovarian
[36] = system: NCI-H522 lung
[37] = system: HL-60(TB) leukemia
[38] = system: SF-268 CNS
[39] = system: KM12 colon
[40] = system: MDA-MB-231 breast
[41] = system: HCT-15 colon
[42] = system: SW-620 colon
[43] = system: NCI-H322M lung
[44] = system: NCI-H23 lung
[45] = system: M14 melanoma
[46] = system: ACHN renal
[47] = system: RPMI-8226 leukemia
[48] = system: SK-OV-3 ovarian
[49] = system: NCI/ADR-RES ovarian
[50] = system: HS 578T breast
[51] = system: NCI-H226 lung
[52] = system: MDA-MB-435 melanoma
[53] = system: LOX IMVI melanoma
[54] = system: HCC-2998 colon
[55] = system: SF-539 CNS
[56] = system: MDA-MB-468 breast
[57] = system: UO-31 renal
[58] = system: DU-145 prostate

**Q.** Which results are given for `CCOc1ccn(-c2ccc(F)cc2)c(=O)c1C(=O)Nc1ccc(Oc2ccnc(N)c2Cl)c(F)c1`?
**A.** GI50 [1]: 5.04 µM; TGI [1]: 85.8 µM; GI50 [2]: 7.37 µM; TGI [2]: 26.3 µM; GI50 [3]: 4.85 µM; TGI [3]: 18.4 µM; GI50 [4]: 1.6 µM; TGI [4]: 3.62 µM; GI50 [5]: 1.67 µM; TGI [5]: 4.29 µM; GI50 [6]: 2.99 µM; TGI [6]: 12.2 µM; GI50 [7]: 8.81 µM; TGI [7]: 98.3 µM; GI50 [8]: 1.95 µM; TGI [8]: 46.2 µM; GI50 [9]: 6.47 µM; TGI [9]: 27.5 µM; GI50 [10]: 4 µM; TGI [10]: 18.6 µM; GI50 [11]: 5.1 µM; TGI [11]: 38.7 µM; GI50 [12]: 4.88 µM; TGI [12]: 20.7 µM; GI50 [13]: 33.4 µM; TGI [13]: > 100 µM; GI50 [14]: 16.3 µM; TGI [14]: > 100 µM; GI50 [15]: 3.81 µM; TGI [15]: 57.7 µM; GI50 [16]: 11.2 µM; TGI [16]: > 100 µM; GI50 [17]: 1.91 µM; TGI [17]: 3.51 µM; GI50 [18]: 9.83 µM; TGI [18]: 58.6 µM; GI50 [19]: 2.06 µM; TGI [19]: 4.32 µM; GI50 [20]: 4.4 µM; TGI [20]: 23.1 µM; GI50 [21]: 4.42 µM; TGI [21]: 23.3 µM; GI50 [22]: 5.06 µM; TGI [22]: 25.9 µM; GI50 [23]: 16.2 µM; TGI [23]: 95 µM; GI50 [24]: 5.47 µM; TGI [24]: 27.3 µM; GI50 [25]: 2.62 µM; TGI [25]: 12.4 µM; GI50 [26]: 4.15 µM; TGI [26]: 90.3 µM; GI50 [27]: 22.4 µM; TGI [27]: > 100 µM; GI50 [28]: 19.7 µM; TGI [28]: > 100 µM; GI50 [29]: 3.35 µM; TGI [29]: 12.1 µM; GI50 [30]: 8.41 µM; TGI [30]: 27.8 µM; GI50 [31]: 15.4 µM; TGI [31]: 35.1 µM; GI50 [32]: 8.05 µM; TGI [32]: > 100 µM; GI50 [33]: 1.44 µM; TGI [33]: 2.9 µM; GI50 [34]: 14.3 µM; TGI [34]: 48.1 µM; GI50 [35]: 6.27 µM; TGI [35]: 40.5 µM; GI50 [36]: 4.35 µM; TGI [36]: 15.7 µM; GI50 [37]: 5.02 µM; TGI [37]: 13.6 µM; GI50 [38]: 2.01 µM; TGI [38]: 8.11 µM; GI50 [39]: 0.314 µM; TGI [39]: > 100 µM; GI50 [40]: 9.78 µM; TGI [40]: 49.3 µM; GI50 [41]: 4.27 µM; TGI [41]: 27.7 µM; GI50 [42]: 12 µM; TGI [42]: 28.9 µM; GI50 [43]: 29.3 µM; TGI [43]: > 100 µM; GI50 [44]: 2.64 µM; TGI [44]: 24.6 µM; GI50 [45]: 2.95 µM; TGI [45]: 11.1 µM; GI50 [46]: 10.8 µM; TGI [46]: > 100 µM; GI50 [47]: 3.52 µM; TGI [47]: > 100 µM; GI50 [48]: 4.37 µM; TGI [48]: 20.9 µM; GI50 [49]: 10.1 µM; TGI [49]: 28.7 µM; GI50 [50]: 5.13 µM; TGI [50]: 21.2 µM; GI50 [51]: 9.81 µM; TGI [51]: > 100 µM; GI50 [52]: 6.2 µM; TGI [52]: 39.5 µM; GI50 [53]: 5.57 µM; TGI [53]: 18.2 µM; GI50 [54]: 24.3 µM; TGI [54]: 68.1 µM; GI50 [55]: 5.67 µM; TGI [55]: 26.9 µM; GI50 [56]: 3.97 µM; TGI [56]: 10.3 µM; GI50 [57]: 8.63 µM; TGI [57]: 59.3 µM; GI50 [58]: 7.49 µM; TGI [58]: > 100 µM
